# In PubChem BioAssay (NCI):
#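 Each compound was tested at five concentrations against cells in 96-well plates for 48 hours. GI50: concentration for 50% inhibition of growth. TGI is the concentration that stops growth completely.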
# Experiments:
# Experiment in all cases: DTP human tumour cell line panel, 48 h
# [1] = test system: BT-549 breast
# [2] = test system: MCF7 breast
# [3] = test system: NCI/ADR-RES ovarian
# [4] = test system: U251 CNS
# [5] = test system: NCI-H522 lung
# [6] = test system: IGROV1 ovarian
# [7] = test system: A498 renal
# [8] = test system: MDA-MB-231 breast
# [9] = test system: OVCAR-5 ovarian
# [10] = test system: HL-60(TB) leukemia
# [11] = test system: SR leukemia
# [12] = test system: HOP-92 NSCLC
# [13] = test system: HCT-116 colon
# [14] = test system: NCI-H460 lung
# [15] = test system: SK-MEL-28 melanoma
# [16] = test system: CAKI-1 renal
# [17] = test system: PC-3 prostate
# [18] = test system: EKVX NSCLC
# [19] = test system: SF-539 CNS
# [20] = test system: SF-268 CNS
# [21] = test system: SF-295 CNS
# [22] = test system: UO-31 renal
# [23] = test system: HCC-2998 colon
# [24] = test system: RPMI-8226 leukemia
# [25] = test system: LOX IMVI melanoma
# [26] = test system: RXF 393 renal
# [27] = test system: MALME-3M melanoma
# [28] = test system: OVCAR-3 ovarian
# [29] = test system: UACC-62 melanoma
# [30] = test system: MDA-MB-435
# [31] = test system: CCRF-CEM leukemia
# [32] = test system: 786-0 renal
# [33] = test system: OVCAR-4 ovarian
# [34] = test system: T-47D breast
# [35] = test system: MOLT-4 leukemia
# [36] = test system: OVCAR-8 ovarian
# [37] = test system: SNB-75 CNS
# [38] = test system: UACC-257 melanoma
# [39] = test system: K-562 leukemia
# [40] = test system: HCT-15 colon
# [41] = test system: SK-OV-3 ovarian
# [42] = test system: M14 melanoma
# [43] = test system: DU-145 prostate
# [44] = test system: SN12C renal
# [45] = test system: HT29 colon
# [46] = test system: SK-MEL-2 melanoma
# [47] = test system: SK-MEL-5 melanoma
# [48] = test system: TK-10 renal
# [49] = test system: NCI-H226 lung
# [50] = test system: HOP-62 NSCLC
# [51] = test system: ACHN renal
# [52] = test system: SNB-19 CNS
# [53] = test system: SW-620 colon
# [54] = test system: COLO 205 colon
# [55] = test system: KM12 colon
# [56] = test system: NCI-H23 lung
# [57] = test system: HS 578T breast
compound,measurement,setting,value
COC1=CC(c2ccc[nH]2)=N/C1=C\c1[nH]c(C)c(C(=O)CCCCC(=O)Nc2ccccc2)c1C,GI50,[1],1.77 µM
same,TGI,[1],13.4 µM
same,GI50,[2],1.37 µM
same,TGI,[2],2.75 µM
same,GI50,[3],1.89 µM
same,TGI,[3],3.69 µM
same,GI50,[4],1.29 µM
same,TGI,[4],2.56 µM
same,GI50,[5],1.32 µM
same,TGI,[5],3.46 µM
same,GI50,[6],0.811 µM
same,TGI,[6],2.07 µM
same,GI50,[7],5.92 µM
same,TGI,[7],20.6 µM
same,GI50,[8],0.396 µM
same,TGI,[8],1.95 µM
same,GI50,[9],3.14 µM
same,TGI,[9],16.5 µM
same,GI50,[10],1.84 µM
same,TGI,[10],5.37 µM
same,GI50,[11],0.636 µM
same,TGI,[11],3.69 µM
same,GI50,[12],1.4 µM
same,TGI,[12],3.37 µM
same,GI50,[13],1.64 µM
same,TGI,[13],3 µM
same,GI50,[14],1.25 µM
same,TGI,[14],2.63 µM
same,GI50,[15],1.63 µM
same,TGI,[15],3.2 µM
same,GI50,[16],4.75 µM
same,TGI,[16],11.9 µM
same,GI50,[17],1.15 µM
same,TGI,[17],2.43 µM
same,GI50,[18],2.64 µM
same,TGI,[18],19.8 µM
same,GI50,[19],3.78 µM
same,TGI,[19],9.78 µM
same,GI50,[20],1.26 µM
same,TGI,[20],2.72 µM
same,GI50,[21],6.11 µM
same,TGI,[21],29.2 µM
same,GI50,[22],1.43 µM
same,TGI,[22],3.12 µM
same,GI50,[23],3.78 µM
same,TGI,[23],16.7 µM
same,GI50,[24],0.142 µM
same,TGI,[24],1.82 µM
same,GI50,[25],1.13 µM
same,TGI,[25],2.34 µM
same,GI50,[26],1.03 µM
same,TGI,[26],2.23 µM
same,GI50,[27],1.28 µM
same,TGI,[27],3.16 µM
same,GI50,[28],1.21 µM
same,TGI,[28],2.51 µM
same,GI50,[29],8.71 µM
same,TGI,[29],24.5 µM
same,GI50,[30],1.79 µM
same,TGI,[30],3.74 µM
same,GI50,[31],0.261 µM
same,TGI,[31],1.43 µM
same,GI50,[32],4.79 µM
same,TGI,[32],12.6 µM
same,GI50,[33],1.56 µM
same,TGI,[33],3.96 µM
same,GI50,[34],1.99 µM
same,TGI,[34],6.14 µM
same,GI50,[35],0.522 µM
same,TGI,[35],2.01 µM
same,GI50,[36],2.02 µM
same,TGI,[36],4.82 µM
same,GI50,[37],2.8 µM
same,TGI,[37],11.4 µM
same,GI50,[38],12.2 µM
same,TGI,[38],34 µM
same,GI50,[39],1.43 µM
same,TGI,[39],2.74 µM
same,GI50,[40],0.679 µM
same,TGI,[40],2.44 µM
same,GI50,[41],18.3 µM
same,TGI,[41],40.1 µM
same,GI50,[42],2.01 µM
same,TGI,[42],4.51 µM
same,GI50,[43],1.2 µM
same,TGI,[43],2.5 µM
same,GI50,[44],1.67 µM
same,TGI,[44],4.38 µM
same,GI50,[45],0.693 µM
same,TGI,[45],2.52 µM
same,GI50,[46],11.9 µM
same,TGI,[46],26.7 µM
same,GI50,[47],4.22 µM
same,TGI,[47],11.6 µM
same,GI50,[48],1.66 µM
same,TGI,[48],3.38 µM
same,GI50,[49],1.85 µM
same,TGI,[49],6.11 µM
same,GI50,[50],2.98 µM
same,TGI,[50],9.7 µM
same,GI50,[51],10.3 µM
same,TGI,[51],24 µM
same,GI50,[52],6.09 µM
same,TGI,[52],20.8 µM
same,GI50,[53],1.02 µM
same,TGI,[53],2.34 µM
same,GI50,[54],1.75 µM
same,TGI,[54],3.8 µM
same,GI50,[55],1.03 µM
same,TGI,[55],2.3 µM
same,GI50,[56],1.87 µM
same,TGI,[56],4.8 µM
COc1cc(CC2C(=O)NC(=O)NC2=O)ccc1OCc1ccccc1,GI50,[33],59.8 µg/mL
same,GI50,[37],38 µg/mL
same,GI50,[57],91.3 µg/mL
